Laboratory results: publication PMC7127338 (Bioorganic & Medicinal Chemistry Letters, 2013)
“Also recorded” adds a separate entry of the source.

Assays:
[1] = Stability study at −20 °C; assay type: physicochemical
[2] = Stability study at different pH values; assay type: physicochemical; settings: 2 days

Row | SMILES | Purity after 1 h ([1]; 1 h after purification by column chromatography) | Purity after 13 h ([1]; 13 h (one night) at −20 °C) | Purity after 20 h ([1]; 20 h, −20 °C) | Stability study at pH 5 (degradation) ([2]; pH 5 (acidic)) | Stability study at pH 7 (degradation) ([2]; pH 7 (neutral)) | Stability study at −20 °C (degradation) ([1]; storage at −20 °C)
1 | C[C@H](NP(=O)(Oc1ccccc1)O[C@H]1O[C@H](CO)[C@@H](O)[C@@H]1F)C(=O)OC1CCCCC1 (stereo partly drawn) [compound 14b, 2-deoxy-2-fluoro-D-arabinofuranose 1-O-phenyl-(cyclohexoxy-alaninyl)-phosphate] | 68% | 30% | 8% | – | – | –
2 | C[C@H](NP(=O)(Oc1ccccc1)O[C@H]1O[C@H](CO)[C@@H](O)C1(F)F)C(=O)OC1CCCCC1 (stereo partly drawn) [compound 25c, 2-deoxy-2,2-difluoro-D-ribofuranose 1-O-phenyl-(cyclohexoxy-alaninyl)-phosphate] | – | – | – | no degradation at all after 2 days; also recorded: No degradation observed over 2 days | no degradation at all after 2 days; also recorded: No degradation observed over 2 days | no degradation at all after 4 months; also recorded: No degradation observed after 4 months
